Assay results reported in PMC12347391, “Sulforaphane-Rich Broccoli Sprout Extract Promotes Hair Regrowth in an Androgenetic Alopecia Mouse Model via Enhanced Dihydrotestosterone Metabolism” (International Journal of Molecular Sciences, 2025).

Key:
[1] = tested on: testosterone-induced AGA mouse model; test: In vivo hair regrowth efficacy; parameters: species or system C57BL/6J mice; conditions: finasteride 1 mg/kg oral; for hair regrowth (coverage of the telogen area) / telogen-to-anagen conversion (telogen area transitioning): day 6; for hair regrowth (coverage of the telogen area) / telogen-to-anagen conversion (telogen area transitioning) / anagen area / hair regrowth / increase in hair follicle length compared to the untreated group / increase in hair weight compared to the untreated group: minoxidil 1% topical; for telogen-to-anagen conversion (telogen area transitioning): once daily
Experimental: On day 6, dorsal hair was removed from all mice. All mice were anesthetized using 3% isoflurane in 100% oxygen at a flow rate of 0.8 L/min, and the suppression of deep pedal reflexes was confirmed in the mice. Then, the desired dorsal region was shaved using electric clippers, followed by the application of rosin wax. After 2 min, the rosin wax was removed with the help of adhesive tape. The application of rosin wax was repeated one more time to completely remove the few remaining hairs.
Testosterone-treated mice were then randomly assigned to six groups (n = 6 per group). The first group served as the negative control and only received the vehicle.
Hair regrowth was visually monitored and photographed on days 0, 3, 6, 9, 12, and 15. Regrowth progression was quantitatively assessed using the software ImageJ (version 1.54p; National Institutes of Health, Bethesda, MD, USA) by measuring the areas corresponding to telogen-phase skin (pink), anagen transition zones (black), and fully covered hair regions. On day 15, the regrown dorsal hair was trimmed and weighed using an analytical balance to assess total hair mass. To evaluate hair follicle length, mice were first anesthetized using 3% isoflurane in 100% oxygen at a flow rate of 0.8 L/min to minimize movement and distress. The dorsal skin area was then cleaned with 70% ethanol to prevent contamination. Using sterile fine-tipped forceps, approximately 5–20 hairs were grasped close to the skin surface and swiftly plucked in the direction of hair growth to minimize follicular damage. Only hair shafts with intact follicular bulbs were selected for analysis. This procedure was repeated at three distinct dorsal sites per animal to obtain a representative sampling of hair regrowth. Finally, the lengths of selected hair follicles were measured microscopically.

[2] = tested on: DHT; test: Plasma DHT level (ELISA); type: in vivo, C57BL/6J mice; conditions: AGA mice; minoxidil 1% topical, finasteride 1 mg/kg oral
Experimental: Blood samples were collected in heparinized tubes and centrifuged at 13,000× g for 5 min at 4 °C to isolate plasma. The plasma was stored at −80 °C until analysis for testosterone and DHT concentrations.
Plasma samples collected after the final dose of once-daily treatments were used to quantify serum testosterone and DHT levels using commercial ELISA kits: the Mouse Testosterone ELISA Kit and Mouse DHT ELISA Kit (LifeSpan BioSciences, Inc., Seattle, WA, USA). All assays were conducted following the manufacturer’s protocols.

[3] = tested on: Akr1c21; test: Western blot of liver tissue; type: in vivo, C57BL/6J mice; conditions: 15 days post-treatment, minoxidil 1% topical, finasteride 1 mg/kg oral
Experimental: (§1) To assess protein expression levels in skin and liver tissues, samples were lysed using M-PER^TM Mammalian Protein Extraction Reagent (Thermo Fisher Scientific) supplemented with a 1× working concentration of Xpert Protease Inhibitor Cocktail Solution (GenDEPOT, Barker, TX, USA), which included 50 μM PMSF, 10 μM Pepstatin A, 20 μM Leupeptin, 100 μM Benzamidine, and 50 μM Bestatin. The lysates were incubated on ice for 30 min and centrifuged at 12,000× g for 10 min at 4 °C to remove debris. The supernatants were collected, and total protein concentrations were determined using the Pierce^TM BCA Protein Assay Kit (Thermo Fisher Scientific).
(§2) Equal amounts of protein (20–30 μg) were loaded onto 10% SDS–polyacrylamide gels and electrophoresed using a Bio-Rad Mini-PROTEAN Tetra System with the Tris–Glycine–SDS running buffer. A pre-stained molecular weight marker (Precision Plus Protein^TM Dual Color Standards, Bio-Rad) was used as a reference. Proteins were then transferred to PVDF membranes (Immobilon®-P, Millipore, Burlington, MA, USA) using the wet transfer method with the Tris–Glycine buffer containing 20% methanol at 0.2 A for 120 min at 4 °C.
(§3) Membranes were blocked with 5% skim milk in TBST buffer (20 mM Tris–HCl, 150 mM NaCl, 0.2% Tween 20, pH 7.4) for 1 h at room temperature and incubated overnight at 4 °C with one of the following primary antibodies diluted at 1:1000: anti-HSP90 (Santa Cruz Biotechnology, sc-13119, Dallas, TX, USA), anti-β-catenin (Cell Signaling Technology, #8480S, Danvers, MA, USA), anti-Lef-1 (Cell Signaling Technology, #2230S, Danvers, MA, USA), anti-Akr1c21 (Invitrogen, PA5-36572, Carlsbad, CA, USA), or anti-Dhrs9 (MyBioSource, MBS9125625, San Diego, CA, USA). Each antibody was applied to separate membranes to avoid cross-reactivity and ensure target specificity.
(§4) After primary antibody incubation, membranes were washed four times for 10 min each with TBST at 50 rpm on a shaker, followed by incubation with HRP-conjugated secondary antibodies (Thermo Fisher Scientific) diluted 1:3000 for 1 h at room temperature. The membranes were then washed three times for 5 min each with TBST under the same conditions. Protein bands were visualized using the enhanced chemiluminescence (ECL) reagent (Bio-Rad) and imaged using the iBright^TM CL1500 Imaging System (Thermo Fisher Scientific). Densitometric analysis was performed using the software ImageJ (NIH), and band intensities were normalized to HSP90 expression to ensure consistent protein quantification across all samples.

[4] = tested on: Dhrs9; test: Western blot of liver tissue; type: in vivo, C57BL/6J mice; conditions: 15 days post-treatment, minoxidil 1% topical, finasteride 1 mg/kg oral
Experimental: as §1, §2, §3, §4

[5] = tested on: Lef-1; test: Western blot of dorsal skin; type: in vivo, C57BL/6J mice; conditions: 15 days post-treatment; minoxidil 1% topical, finasteride 1 mg/kg oral; neither significant
Experimental: as §1, §2, §3, §4

[6] = tested on: β-catenin; test: Western blot of dorsal skin; type: in vivo, C57BL/6J mice; conditions: 15 days post-treatment; minoxidil 1% topical, finasteride 1 mg/kg oral
Experimental: as §1, §2, §3, §4

[7] = tested on: liver tissue; test: Safety observation and liver H&E histology after 15-day treatment; type: in vivo, C57BL/6J mice; conditions: mice, oral BSE or finasteride
[8] = tested on: HDP cells; test: In vitro cell proliferation assay (WST-1); type: cell-based, human
[9] = tested on: HDP cells; test: In vitro scratch wound recovery assay; type: cell-based, human
Experimental: No. BA-045855; Sartorius AG, […], Germany). […] Sartorius AG), following the manufacturer's instructions. Detached cells were removed by washing twice with PBS (pH 7.4). […] All treatments were performed in triplicate, including a vehicle control. […] Wound closure was quantified using the Incucyte® Scratch Wound Analysis Software Module, which calculates relative wound density (%) by comparing cell density within the wound area to that of the surrounding monolayer, providing an objective measure of cell migration and proliferation over time.

[10] = tested on: HaCaT keratinocytes; test: In vitro cell proliferation assay (WST-1)
[11] = tested on: CCD-986sk dermal fibroblasts; test: In vitro cell proliferation assay (WST-1)

| SMILES | hair regrowth (coverage of the telogen area) [1] [%] | telogen-to-anagen conversion (telogen area transitioning) [1] [%] | anagen area ([1]; day 9) [%] | hair regrowth ([1]; day 9) [%] | hair regrowth ([1]; day 15) [%] | increase in hair follicle length compared to the untreated group ([1]; day 15) [fold] | increase in hair weight compared to the untreated group ([1]; day 15) [%] | reduction of plasma DHT compared to the untreated control [2] | hepatic Akr1c21 protein expression [3] | hepatic Dhrs9 protein expression [4] | Lef-1 expression in dorsal skin [5] | β-catenin expression in dorsal skin [6] | also measured |
| --- | --- | --- | --- | --- | --- | --- | --- | --- | --- | --- | --- | --- | --- |
| CC(C)(C)NC(=O)[C@H]1CC[C@H]2[C@@H]3CC[C@H]4NC(=O)C=C[C@]4(C)[C@H]3CC[C@]12C [finasteride] | 7.76 | 85.8 | 93.1 | 54.2 | 99.0 | 3.00 | 165 | 2.38 fold | markedly upregulated | markedly upregulated | no such trend | significantly restored | telogen area ([1]; day 9): 6.94%; physical abnormalities during treatment [7]: no physical abnormalities |
| Nc1cc(N2CCCCC2)nc(N)[n+]1[O-] [minoxidil] | 0.7 | 65.0 | 69.8 | 4.79 | 95.0 | 2.24 | 82.5 | no detectable effect | no significant effect | no significant effect | positive trend | significantly restored | concentration above which proliferation markedly declined [8]: above 10 µg/mL; scratch wound closure ([9]; 0.1 µg/mL, 16 h): 68.8%; scratch wound closure ([9]; 0.1 µg/mL, 20 h): 77.7%; scratch wound closure ([9]; 0.1 µg/mL, 24 h): 94.7%; scratch wound closure ([9]; 1 µg/mL, 16 h): 49.2%; scratch wound closure ([9]; 25 µg/mL, 16 h): 29.2%; concentration above which cytotoxic effects (decreased cell viability) were seen [10]: above 10 µg/mL; concentration at which proliferation decreased (dose-dependent cytotoxicity) [11]: ≥ 10000 ng/mL; increase in cell proliferation ([11]; 0.5 µg/mL): 184%; increase in cell proliferation ([11]; 1 µg/mL): 173%; proliferation at lower concentrations ([11]; 0.01–0.1 µg/mL): significantly enhanced proliferation |
